Values after ≈ are worked out from the molar mass of the structure shown. Where a SMILES comes first, the peptide text is derived from it. [ ]: non-standard residue; d: D form.
Legend:
[1] = test system: MRSA USA300 biofilms; assay: Biofilm inhibition by >95% pure peptides (crystal violet), MRSA; format: cell-based, methicillin resistant Staphylococcus aureus; conditions: MRSA USA300 biofilms, >95% pure peptides, 10% TSB + 0.1% glucose
[2] = test system: P. aeruginosa PAO1 biofilms; conditions: for Biofilm growth inhibition: P. aeruginosa PAO1 (FIG. 20D); for minimum inhibitory concentration of peptide that inhibited at least 90% of biofilm growth (MBIC90): P. aeruginosa PAO1 biofilms, >95% pure peptides, crystal violet, BM2 minimal media; for More active than AB103-D against PAO1 biofilms: PAO1, >95% pure peptides
[3] = test system: P. aeruginosa PAO1 biofilms; assay: Biofilm inhibition by SPOT-synthesized AB103-D variants (crystal violet), P. aeruginosa; format: cell-based, Pseudomonas aeruginosa; conditions: P. aeruginosa PAO1, SPOT peptides
[4] = test system: peripheral blood mononuclear cells (PBMCs); assay: Cytotoxicity (LDH release), PBMCs
[5] = Peptide aggregation in RPMI + 10% FBS with PBMCs (microscopy); format: physicochemical; conditions: overnight
Procedure: Peptide Aggregation: Peptide aggregation was assessed qualitatively by examining samples of peptides mixed with PBMCs following overnight incubation at 37 °C and 5% CO2. All samples were prepared in RPMI media containing 10% FBS the same manner as the cytotoxicity assays described above. Visualization of aggregates was done using a Nikon Eclipse TS100 Inverted Microscope at 10× magnification.
In aggregation studies, peptides were added to PBMCs in RPMI media containing 10% FBS and incubated overnight at 37 °C in 5% CO2.
The peptides were also evaluated for their tendency to aggregate when added to RPMI tissue culture media containing 10% fetal bovine serum in the presence of PBMCs. Peptides were added to PBMCs in RPMI media containing 10% FBS and incubated overnight at 37 °C in 5% CO2. […] Compared to a highly aggregation prone peptide, 1018 [Haney, E. F., et al. (2017). Aggregation and its influence on the immunomodulatory activity of synthetic innate defense regulator peptides.
As with the DJK-5 derivatives above, the AB103-D derivatives were evaluated for their tendency to aggregate when added to RPMI tissue culture media containing 10% fetal bovine serum in the presence of PBMCs. Peptides were added to PBMCs in RPMI media containing 10% FBS and incubated overnight at 37 °C in 5% CO2.

[6] = test system: P. aeruginosa PAO1 planktonic cells; assay: Planktonic growth inhibition by pure AB103-D derivatives, P. aeruginosa; format: cell-based, Pseudomonas aeruginosa
Procedure: (§1) The effect of peptide on bacterial and biofilm growth was assessed using the biofilm inhibition assay [Haney, E. F., Trimble, M. J., & Hancock, R. E. W. (2021) FIGS. 20A-20D. Microtiter plate assays to assess antibiofilm activity against bacteria. Nature Protocols, 16(5), 2615-2632]. The effect of peptide on planktonic growth and biofilm growth of MRSA USA300 (FIG. 20A, FIG. 20C) and P. aeruginosa PAO1 (FIGS. 20B, 20D) was assessed and compared to the activity seen for AB103-D (gray stars) and DJK5 (gray open circles). Data shown are the average of three biological replicates. Error bars have been omitted for clarity. […]. The results indicated enhanced antibiofilm and antibacterial activity of AB103-D derivatives compared to DJK5.

[7] = test system: red blood cells; assay: Hemolysis; format: cell-based, human; conditions: 4 hours
Procedure: Hemolysis: Peptide induced hemolysis was evaluated according to methods described previously [Hilchie, A. L., et al. (2016). Mastoparan is a membranolytic anti-cancer peptide that works synergistically with gemcitabine in a mouse model of mammary carcinoma. Biochimica Et Biophysica Acta, 1858(12), 3195-3204]. Briefly, red blood cells were obtained, with human ethics approval, from the blood of healthy volunteers collected in a sodium heparin tube and then rinsed three times in PBS, centrifuging between washes, to obtain the hematocrit (100% RBC). A 2.5% RBCs suspension was exposed to peptide at varying concentrations and incubated at 37 C in a 5% CO2 humidified atmosphere for 4 hours. Supernatants were collected following centrifugation (1100 rpm) and transferred to a flat bottom microtitre plate. The absorbance (490 nm) of each supernatant was measured on a BioTek Epoch Microplate Spectrophotometer. Percent hemolysis was calculated by comparing the absorbance arising from peptide treated cells to RBCs treated with […] (0% hemolysis) or lysed with 1% Triton X-100 (100% hemolysis).

[8] = test system: Staphylococcus haemolyticus; assay: MIC (broth microdilution) of peptides, S. haemolyticus; format: cell-based; conditions: mode of three biological replicates
Procedure: (§2) Minimal inhibitory concentration (MIC) against planktonic bacteria: The MIC of the synthetic peptides was determined in Mueller-Hinton broth (MHB) using the broth microdilution method described previously [Wiegand, I., Hilpert, K., & Hancock, R. E. (2008). Agar and broth dilution methods to determine the minimal inhibitory concentration (MIC) of antimicrobial substances. Nature Protocols, 3(2), 163-175]. Briefly, 10 μl of a 10× concentrated peptide solution was placed in the bottom of a well in a 96-well polypropylene round bottom plate (Corning Inc.). A bacterial suspension of ~5×10^5 CFU/ml was prepared from an overnight culture and 90 μl of this was added to each well. […] Bacteria tested included P. aeruginosa PAO1, MRSA USA300 LAC, Staphylococcus haemolyticus, Staphylococcus epidermidis, Klebsiella pneumoniae and Streptococcus salivarius.
(§3) Finally, the AB103-D derivatives that were the least aggregation prone and which produced the lowest toxic effects in vivo were evaluated for their direct antibacterial activity towards several pathogens of clinical relevance using a standard minimum inhibitory concentration (MIC) assay [Wiegand, I., Hilpert, K., & Hancock, R. E. (2008). Agar and broth dilution methods to determine the minimal inhibitory concentration (MIC) of antimicrobial substances. Nature Protocols, 3(2), 163-175]. Specifically, peptides AB110-D, AB111-D, AB114-D and AB115-D were tested against P. aeruginosa PAO1, MRSA USA 300, Staphylococcus haemolyticus, Staphylococcus epidermidis, Klebsiella pneumoniae and Streptococcus salivarius and compared against the antibacterial activity of DJK-5 and AB103-D (Table 7). Overall, the antibacterial potency of all of the AB103-D derivatives was stronger than that seen for DJK-5, particularly in the case of the Gram-negative pathogens P. aeruginosa and K. pneumoniae. […]

[9] = test system: MRSA USA300 planktonic cells; assay: Planktonic growth inhibition by pure AB103-D derivatives, MRSA; format: cell-based, methicillin resistant Staphylococcus aureus
Procedure: as §1

[10] = test system: P. aeruginosa PAO1; assay: MIC (broth microdilution) of peptides, P. aeruginosa; format: cell-based, Pseudomonas aeruginosa; conditions: mode of three biological replicates
Procedure: as §2, §3

[11] = test system: Klebsiella pneumoniae; assay: MIC (broth microdilution) of peptides, K. pneumoniae; format: cell-based; conditions: mode of three biological replicates
Procedure: as §2, §3

[12] = Subdermal murine toxicity model; conditions: for Clinical score: 1 hour after subcutaneous administration, comparator DJK-5; for Average cyst size compared to DJK-5: 16 hours after administration, 4 mg/kg
Procedure: FIGS. 14A-14B show murine subdermal toxicity assessment of AB103-D derived peptides. Clinical scores were recorded for each peptide treated mouse one hour after peptide administration (FIG. 14A). […] The presence of a cyst or lesion was recorded 16 hours after peptide administration and the size of the cyst was measured using calipers (FIG. 14B). Data shown are the mean of two independent replicates at a peptide dose of 4 mg/kg.
Subdermal murine toxicity model: A subdermal toxicity mouse model was used to evaluate whether peptides induced localized toxicity of treated cutaneous tissue. Mice were anesthetized with 2.5-3% isoflurane and their fur was removed by shaving followed by application of a chemical depilatory. […] Mice were visually assessed and received clinical scores for a battery of signs or symptoms (activity/behaviour change, appearance/grooming, hydration, pain, cyst formation), for which a score of zero was given to animals that appeared normal. Animals were weighed and clinical scores were totalled. Following an overnight (16 h) incubation, mice were scored and weighed then euthanized with CO2 followed by cervical dislocation. Mice were imaged and cysts (swollen, inflamed tissue) were measured using a caliper. Animal experiments were performed in accordance with the Canadian Council on Animal Care (CCAC) guidelines and were approved by the University of British Columbia Animal Care Committee. Female CD-1 mice were purchased from Charles River Laboratories, Inc. (Wilmington, MA). All mice were 8 weeks of age and weighed 25±5 g at the time of the experiment. Animals were group housed in cohorts of three to four littermates. Standard animal husbandry practices were employed.

[13] = test system: MRSA USA 300; assay: MIC (broth microdilution) of peptides, MRSA; format: cell-based, methicillin resistant Staphylococcus aureus; conditions: MRSA USA300; mode of three biological replicates
Procedure: as §2, §3

[14] = test system: Staphylococcus epidermidis; assay: MIC (broth microdilution) of peptides, S. epidermidis; format: cell-based; conditions: mode of three biological replicates
Procedure: as §2, §3

[15] = test system: Streptococcus salivarius; assay: MIC (broth microdilution) of peptides, S. salivarius; format: cell-based; conditions: mode of three biological replicates
Procedure: as §2, §3

[16] = test system: MRSA biofilms (USA300 LAC); conditions: MRSA biofilms, SPOT peptides
[17] = 200 μg/ml or highest concentration

| SMILES | minimum inhibitory concentration of peptide that inhibited at least 90% of biofilm growth (MBIC90) [1] | Biofilm growth inhibition [2] | minimum inhibitory concentration of peptide that inhibited at least 90% of biofilm growth (MBIC90) [2] | More active than AB103-D against PAO1 biofilms [2] | Activity against PAO1 biofilms compared to AB103-D [3] | Cytotoxicity (LDH) [4] | Peptide aggregation ([5]; 50 μg/ml) | Peptide aggregation [5, 17] | Planktonic growth inhibition [6] | Hemolysis [7] | MIC [8] | Planktonic growth inhibition [9] | MIC [10] | MIC [11] | Clinical score [12] | Average cyst size compared to DJK-5 [12] | MIC [13] | MIC [14] | MIC [15] | Better activity vs. MRSA cf. AB103-D [16] |
| --- | --- | --- | --- | --- | --- | --- | --- | --- | --- | --- | --- | --- | --- | --- | --- | --- | --- | --- | --- | --- |
| CC[C@@H](C)[C@@H](NC(=O)[C@@H](C)NC(=O)[C@@H](CCCNC(=N)N)NC(=O)[C@@H](Cc1c[nH]c2ccccc12)NC(=O)[C@@H](CCC(N)=O)NC(=O)[C@H](NC(=O)[C@@H](CCCNC(=N)N)NC(=O)[C@H](NC(=O)[C@H](NC(=O)[C@@H](Cc1c[nH]c2ccccc12)NC(=O)[C@H](NC(=O)[C@H](N)CCCNC(=N)N)C(C)C)C(C)C)[C@H](C)CC)C(C)C)C(N)=O [AB109-D, rvwvirvqwrai] (H-[dR][dV][dW][dV][dI][dR][dV][dQ][dW][dR][dA][dI]-NH2) | 1 µM | among the most active | 2 µM | up to 4 fold | activity superior to that of AB103-D | most toxic towards PBMCs at the highest peptide concentration evaluated of 200 μg/ml | peptide aggregation was again observed | strongly aggregated | among the most active | substantial hemolysis at concentrations higher than 25 μg/ml |  |  |  |  |  |  |  |  |  |  |
| CC[C@@H](C)[C@@H](NC(=O)[C@@H](C)NC(=O)[C@@H](CCCNC(=N)N)NC(=O)[C@@H](Cc1c[nH]c2ccccc12)NC(=O)[C@@H](CCC(N)=O)NC(=O)[C@H](NC(=O)[C@@H](CCCNC(=N)N)NC(=O)[C@@H](Cc1c[nH]c2ccccc12)NC(=O)[C@H](NC(=O)[C@@H](CCCNC(=N)N)NC(=O)[C@H](NC(=O)[C@H](N)CCCNC(=N)N)C(C)C)C(C)C)C(C)C)C(N)=O [AB111-D, rvrvwrvqwrai] (H-[dR][dV][dR][dV][dW][dR][dV][dQ][dW][dR][dA][dI]-NH2) | 0.5 µM |  | 4 µM |  | activity superior to that of AB103-D |  |  |  |  |  | 0.8 µg/mL (≈ 0.493 µM) | among the most active against planktonic cells | 2 µg/mL (≈ 1.23 µM) | 0.8 µg/mL (≈ 0.493 µM) | < 2 | smaller than those induced by DJK-5 | 0.8 µg/mL (≈ 0.493 µM) | 0.8 µg/mL (≈ 0.493 µM) | 0.8 µg/mL (≈ 0.493 µM) |  |
| CC[C@@H](C)[C@@H](NC(=O)[C@H](NC(=O)[C@@H](CCCNC(=N)N)NC(=O)[C@@H](Cc1c[nH]c2ccccc12)NC(=O)[C@@H](CCC(N)=O)NC(=O)[C@H](NC(=O)[C@@H](CCCNC(=N)N)NC(=O)[C@H](NC(=O)[C@H](NC(=O)[C@@H](CCCNC(=N)N)NC(=O)[C@H](NC(=O)[C@H](N)CCCNC(=N)N)C(C)C)C(C)C)[C@H](C)CC)C(C)C)[C@H](C)CC)C(N)=O [AB112-D, rvrvirvqwrii] (H-[dR][dV][dR][dV][dI][dR][dV][dQ][dW][dR][dI][dI]-NH2) | 1 µM | among the most active | 2 µM | up to 4 fold | activity superior to that of AB103-D |  | peptide aggregation was again observed | strongly aggregated | among the most active |  |  |  |  |  |  |  |  |  |  |  |
| CC[C@@H](C)[C@@H](NC(=O)[C@@H](C)NC(=O)[C@@H](CCCNC(=N)N)NC(=O)[C@@H](Cc1c[nH]c2ccccc12)NC(=O)[C@@H](CCCCN)NC(=O)[C@H](NC(=O)[C@@H](CCCNC(=N)N)NC(=O)[C@H](NC(=O)[C@H](NC(=O)[C@@H](CCCNC(=N)N)NC(=O)[C@H](NC(=O)[C@H](N)CCCNC(=N)N)C(C)C)C(C)C)[C@H](C)CC)C(C)C)C(N)=O [AB114-D, rvrvirvkwrai] (H-[dR][dV][dR][dV][dI][dR][dV][dK][dW][dR][dA][dI]-NH2) | 0.5 µM |  | 8 µM |  |  |  |  |  |  |  | 0.8 µg/mL (≈ 0.516 µM) | among the most active against planktonic cells | 2 µg/mL (≈ 1.29 µM) | 0.8 µg/mL (≈ 0.516 µM) | < 2 | smaller than those induced by DJK-5 | 0.8 µg/mL (≈ 0.516 µM) | 0.4 µg/mL (≈ 0.258 µM) | 0.8 µg/mL (≈ 0.516 µM) | ~2 fold |
